Reference: ChEMBL document CHEMBL4680174, “Synthesis, biological evaluation and in silico modeling of novel integrase strand transfer inhibitors (INSTIs)” (Eur J Med Chem, 2020)
Converted amounts (≈) assume the structure as drawn. One block for each compound: values may come before it.

How the values were obtained:
[1] = tested on: Human immunodeficiency virus 1; assay: Antiviral activity against HIV1 3B infected in human CEM-SS cells assessed as reduction in cytopathic effect after 4 days; type: functional, organism-based
[2] = Thermodynamic solubility of compound in plON buffer at 2 mg after 24 hrs; type: physicochemical; settings: read-out: Therm_solubility
[3] = Thermodynamic solubility of compound in water at 2 mg after 24 hrs; type: physicochemical; settings: read-out: Therm_solubility
[4] = Selectivity index, ratio of CC50 for human CEM-SS cells to EC50 for Antiviral activity against HIV1 3B infected in human CEM-SS cells; type: toxicity, cell-based
[5] = MRTlast in Sprague-Dawley rat at 10 mg/kg, po up to 24 hrs by LC-MS/MS analysis; type: ADME, organism-based; settings: in vivo
[6] = Drug concentration in Sprague-Dawley rat at 2 mg/kg, iv after 8 hrs by LC-MS/MS analysis; type: ADME, organism-based; settings: in vivo, read-out: Drug uptake
[7] = Stability in rat liver microsomes assessed as parent compound remaining at 1 uM up to 24 hrs by LC-MS/MS analysis; type: ADME, Microsome; settings: read-out: Stabilty
[8] = Half life in Sprague-Dawley rat at 10 mg/kg, po up to 24 hrs by LC-MS/MS analysis; type: ADME, organism-based; settings: in vivo
[9] = Tmax in Sprague-Dawley rat at 2 mg/kg, iv up to 24 hrs by LC-MS/MS analysis; type: ADME, organism-based; settings: in vivo
[10] = Tmax in Sprague-Dawley rat at 10 mg/kg, po up to 24 hrs by LC-MS/MS analysis; type: ADME, organism-based; settings: in vivo
[11] = AUCinfinity in Sprague-Dawley rat at 2 mg/kg, iv up to 24 hrs by LC-MS/MS analysis; type: ADME, organism-based; design: route intravenous, dose 2 mg/kg, time <=24; settings: in vivo
[12] = Cmax in Sprague-Dawley rat at 2 mg/kg, iv up to 24 hrs by LC-MS/MS analysis; type: ADME, organism-based; design: route intravenous, dose 2 mg/kg, time <=24; settings: in vivo
[13] = Protein binding in rat plasma at 1 uM after 4 hrs by LC-MS/MS analysis; type: ADME, cell-free; settings: read-out: PPB (converted)
[14] = AUClast in Sprague-Dawley rat at 10 mg/kg, po up to 24 hrs by LC-MS/MS analysis; type: ADME, organism-based; design: route oral, dose 10 mg/kg, time <=24; settings: in vivo
[15] = Oral bioavailability in Sprague-Dawley rat at 10 mg/kg up to 24 hrs by LC-MS/MS analysis; type: ADME, organism-based; settings: in vivo
[16] = Stability in human liver microsomes assessed as parent compound remaining at 1 uM up to 24 hrs by LC-MS/MS analysis; type: ADME, Microsome; settings: read-out: Stabilty
[17] = Drug concentration in Sprague-Dawley rat at 2 mg/kg, iv after 24 hrs by LC-MS/MS analysis; type: ADME, organism-based; settings: in vivo, read-out: Drug uptake
[18] = AUClast in Sprague-Dawley rat at 2 mg/kg, iv up to 24 hrs by LC-MS/MS analysis; type: ADME, organism-based; design: route intravenous, dose 2 mg/kg, time <=24; settings: in vivo
[19] = Cmax in Sprague-Dawley rat at 10 mg/kg, po up to 24 hrs by LC-MS/MS analysis; type: ADME, organism-based; design: route oral, dose 10 mg/kg, time <=24; settings: in vivo
[20] = Drug concentration in Sprague-Dawley rat at 10 mg/kg, po after 24 hrs by LC-MS/MS analysis; type: ADME, organism-based; settings: in vivo, read-out: Drug uptake
[21] = Elimination rate constant Sprague-Dawley rat at 2 mg/kg, iv up to 24 hrs by LC-MS/MS analysis; type: ADME, organism-based; settings: in vivo
[22] = MRTlast in Sprague-Dawley rat at 2 mg/kg, iv up to 24 hrs by LC-MS/MS analysis; type: ADME, organism-based; settings: in vivo
[23] = AUCinfinity in Sprague-Dawley rat at 10 mg/kg, po up to 24 hrs by LC-MS/MS analysis; type: ADME, organism-based; design: route oral, dose 10 mg/kg, time <=24; settings: in vivo
[24] = Protein binding in human plasma at 1 uM after 4 hrs by LC-MS/MS analysis; type: ADME, cell-free; settings: read-out: PPB
[25] = Elimination rate constant Sprague-Dawley rat at 10 mg/kg, po up to 24 hrs by LC-MS/MS analysis; type: ADME, organism-based; settings: in vivo
[26] = Cytotoxicity against human CEM-SS cells assessed as reduction in cell viability by XTT assay; type: cell-based
[27] = Drug concentration in Sprague-Dawley rat at 10 mg/kg, po after 8 hrs by LC-MS/MS analysis; type: ADME, organism-based; settings: in vivo, read-out: Drug uptake
[28] = tested on: Human immunodeficiency virus 1; assay: Antiviral activity against HIV1 3B; type: functional, organism-based; settings: Human immunodeficiency virus 1, 3B
[29] = tested on: Human immunodeficiency virus 1; assay: Antiviral activity against HIV1 3B infected in human CEM-SS cells assessed as reduction in cytopathic effect at 2 nM after 4 days; type: functional; design: scale not given: the % may be the effect or the level left; settings: time 4 day
[30] = Human immunodeficiency virus 1, 3B, CEM-SS, 96 h

EC50 [1, 30]: 0.43 nM
MRT last at 24 h [5]: 11.3 h
concentration at 8 h [6]: 24500 ng/mL
remaining at 24 h, 1 µM [7]: 110%
half-life [8]: 35 h
Tmax [9]: 1 h
Tmax [10]: 6.67 h
AUC [11]: 1139.52 µg·h/mL
Cmax [12]: 37200 ng/mL
fraction unbound at 4 h, 1 µM [13]: 0.9
AUC(0-t) at 24 h [14]: 66.9 µg·h/mL
F [15]: 17.5%
remaining at 24 h, 1 µM [16]: 105%
solubility thermodynamic at 24 h [2]: 3.2 µg/mL (≈ 7.78 µM)
solubility thermodynamic at 24 h [3]: 2.85 µg/mL (≈ 6.93 µM)
concentration at 24 h [17]: 16600 ng/mL
AUC(0-t) at 24 h [18]: 578 µg·h/mL
Cmax [19]: 3680 ng/mL
concentration at 24 h [20]: 4440 ng/mL
Kel [21]: 0.03 h⁻¹
MRTlast [22]: 9.81 h
AUC [23]: 200.296 µg·h/mL
fraction unbound at 4 h, 1 µM [24]: 0.001
k el at 24 h [25]: 5.56e-06 s⁻¹
concentration at 8 h [27]: 3470 ng/mL
Structure (SMILES): C[C@H]1CO[C@@H]2Cn3cc(C(=O)NCc4ccc5nonc5c4)c(=O)c(O)c3C(=O)N12
CC50 [26]: > 10 nM

EC50 [1, 30]: > 10 nM
solubility thermodynamic at 24 h [2]: 91 µg/mL (≈ 234 µM)
solubility thermodynamic at 24 h [3]: 78 µg/mL (≈ 201 µM)
Structure (SMILES): C[C@H]1CO[C@@H]2Cn3cc(C(=O)NCc4ccncc4F)c(=O)c(O)c3C(=O)N12
CC50 [26]: > 10 nM

EC50 [1, 30]: 1.93 nM
solubility thermodynamic at 24 h [2]: 21 µg/mL (≈ 42.7 µM)
solubility thermodynamic at 24 h [3]: 21 µg/mL (≈ 42.7 µM)
Structure (SMILES): C[C@H]1CO[C@@H]2Cn3cc(C(=O)NCc4cc5c(cc4Br)OCO5)c(=O)c(O)c3C(=O)N12
selectivity ratio ([4]; CEM-SS cells, read-out: Ratio CC50/EC50): > 5.2
CC50 [26]: > 10 nM

The next lines start with the compound.

Structure (SMILES): C[C@H]1CO[C@@H]2Cn3cc(C(=O)NCc4ccc(F)nc4F)c(=O)c([O-])c3C(=O)N12.[Na+]
EC50 ([1]; cem-ss): 4.8 nM
solubility thermodynamic at 24 h [2]: 1680 µg/mL
solubility thermodynamic at 24 h [3]: 2680 µg/mL
Ratio CC50/EC50 [4]: > 2.08

Structure (SMILES): Cc1cc2c(cc1CNC(=O)c1cn3c(c(O)c1=O)C(=O)N1[C@@H](C)CO[C@@H]1C3)OCCO2
EC50 [1, 30]: > 10 nM
solubility thermodynamic at 24 h [2]: 70 µg/mL (≈ 159 µM)
solubility thermodynamic at 24 h [3]: 56 µg/mL (≈ 127 µM)
CC50 [26]: > 10 nM

Structure (SMILES): O=C(NCc1c(F)cc(F)cc1F)c1cn2c(c(O)c1=O)C(=O)N1[C@H]3CC[C@H](C3)O[C@@H]1C2 [BICTEGRAVIR]
EC50 [28]: 1 nM

Structure (SMILES): C[C@H]1CO[C@@H]2Cn3cc(C(=O)NCc4ccc(F)cc4F)c(=O)c(O)c3C(=O)N12 [CABOTEGRAVIR]
Activity [29]: >50%

Structure (SMILES): C[C@@H]1CCO[C@H]2Cn3cc(C(=O)NCc4ccc(F)cc4F)c(=O)c(O)c3C(=O)N12 [DOLUTEGRAVIR]
EC50 [28]: 1.1 nM
